Here are results for 2 compounds from US20230391741A1, “AGAROFURAN COMPOUND, PREPARATION METHOD THEREFOR, AND APPLICATION THEREOF” (BEIJING CHY PHARMACEUTICAL TECHNOLOGY CO, LTD., priority 2021, published 2023).

Values joined by “and” are separate entries in the source; they are usually repeats but may differ in a detail not shown here. Identical values can stand only once.

This experiment relates to male ICR mice. Put plainly: Elevated plus maze (EPM) test, intraperitoneal injection. The note with it: for Closed arm number of entries / Closed arm residence time / Open arm number of entries / Open arm residence time / Open arm/closed arm frequency ratio / Open arm/closed arm time ratio: mice, intraperitoneal, 5 min before entering the maze. It counts as in vivo, mouse. The text has this:
The active ingredient used in the following pharmacological experiment, the compound shown in Formula (I) of the present application, is the final product in Example 1 of the present application, namely (1R,6S,9R)6,10,10-trimethyl-2-(4,4,4-trifluorobutyl)-11-oxatricyclo [7.2.1.0^1,6]dodec-2-ene (hereinafter referred to as Compound 2). Compound 2 and an excipient PVP (povidone K30) were mixed in an ethanol solution in a mass ratio of 1:15, spin-dried, and prepared into a preparation form of Compound 2 (the following Compound 2 refers to the preparation form of Compound 2). The preparation form of which the active ingredient was 4-butyl-α-agarofuran (BAF for short) was used as a positive drug, a preparation method for this preparation was the same as that of the preparation of Compound 2, and the following BAF refers to this preparation of BAF. PVP was a blank control. In addition, the administration dose was calculated according to a crude drug.
This model is one of the most commonly used animal models in the research of antianxiety drugs. The elevated plus maze is composed of an open arm (30×5×0.5 cm) and an closed arm (30×8×15 cm) that are crossed in a positive cross shape, and the instrument is suspended 50 cm above the ground. Due to the narrowness, suspension, and brightness of the open arm, there may be internal “fear” or conflict in the open arm, and on the contrary, it more complies with the nature of rodents in the closed arm. 5 min after administration, a mouse is placed in the center of the maze, and its head faces to the open arm. Open-arm and closed-arm entries and residence times in both arms during the experimental period (usually 5 min) are recorded respectively. The percentages of the open arm entries and the open arm residence times respectively accounting for the total entries (sum of the open arm and closed arm entries) and the total time (sum of the open arm and closed arm residence times) are calculated, as an indicator for evaluating the anxiety. Generally speaking, a drug is considered to have antianxiety effects in the case that the open arm cumulative residence time is prolonged without reducing the open arm and closed arm entries.
The experiment used male Institute of Cancer Research (ICR) mice (purchased from Beijing Weitong Lihua Experimental Animal Technology Co., Ltd.), the weight was 18-20 g, the mice were randomly divided into 7 groups according to the weight, and there were 13 mice in each group. Grip adaptation training was conducted on the mice before the experiment. Before the experiment, the mice were fasted for 12 hours. It was administered by an intraperitoneal injection mode. 4-butyl-α-agarofuran (BAF for short) was used as a positive drug, and PVP was a blank control. The specific grouping and disposal modes are as follows:
During detection, after intraperitoneal injection of BAF/Compound 2, each mouse was immediately placed in an open animal box and allowed to move freely for 5 min, then the mouse was placed on a central platform of the elevated plus maze, its head faced to a fixed open arm. The detection was started, timed for 5 min, and recorded with a supermaze software by using a camera head. After all the experiments were completed, the residence times (s) of the mice in the open arm and the closed arm, the open arm and closed arm entries, and the time ratios and frequency ratios of the open arm and closed arm entries were recorded with the supermaze software. 1 was added to the number of entry arms with a latency of 0.

In the case of `CCCCC1=CCC[C@@]2(C)CC[C@@H]3C[C@]12OC3(C)C` [BAF, 4-butyl-α-agarofuran, reference compound], where the note is “2 mg/kg, 2 mg/kg”, the “Closed arm number of entries” value was 10.31 ± 1.13 and 11.22 ± 1.5 and 9.90 ± 1.19; the “Closed arm residence time” value is 143.9 ± 9.32 s and 148.89 ± 8.27 s and 146.67 ± 7.95 s; the “Open arm number of entries” value is 8.62 ± 0.92 and 8.78 ± 1.1 and 8.80 ± 1.14; the “Open arm residence time” value is 115.97 ± 9.71 s and 110.32 ± 8.91 s and 110.04 ± 6.30 s. Moreover, for the setting “2 mg/kg, 2 mg/kg”, the “Open arm/closed arm frequency ratio” value was 0.85 ± 0.06 and 0.80 ± 0.07 and 0.89 ± 0.07; the “Open arm/closed arm time ratio” value was 0.93 ± 0.16 and 0.79 ± 0.12 and 0.80 ± 0.11. Moreover, under “4 mg/kg, 4 mg/kg”, the “Closed arm number of entries” value was 9.23 ± 0.57 and 8.89 ± 0.79 and 9.29 ± 0.68; the “Closed arm residence time” value was 153.35 ± 7.35 s and 162.64 ± 5.96 s and 144.17 ± 12.09 s; the “Open arm number of entries” value was 7.38 ± 0.58 and 6.56 ± 0.4 and 8.29 ± 0.87; the “Open arm residence time” value is 117.29 ± 7.44 s and 106.13 ± 3.91 s and 128.84 ± 11.89 s. Where the note is “4 mg/kg, 4 mg/kg”, the “Open arm/closed arm frequency ratio” value was 0.82 ± 0.07 and 0.77 ± 0.06 and 0.91 ± 0.09; the “Open arm/closed arm time ratio” value is 0.82 ± 0.11 and 0.66 ± 0.04 and 0.98 ± 0.18. In addition, for the setting “8 mg/kg, 8 mg/kg”, the “Closed arm number of entries” value was 9.85 ± 0.72 and 9.78 ± 1.00 and 9.60 ± 0.87; the “Closed arm residence time” value is 162.19 ± 10.92 s and 158.24 ± 14.9 s and 165.34 ± 13.19 s; the “Open arm number of entries” value was 7.69 ± 0.91 and 8.11 ± 1.27 and 7.10 ± 0.95; the “Open arm residence time” value was 110.07 ± 9.77 s and 113.25 ± 12.84 s and 107.74 ± 11.86 s. For the same compound, for the setting “8 mg/kg, 8 mg/kg”, the “Open arm/closed arm frequency ratio” value is 0.76 ± 0.05 and 0.76 ± 0.07 and 0.72 ± 0.06; the “Open arm/closed arm time ratio” value was 0.76 ± 0.10 and 0.81 ± 0.13 and 0.74 ± 0.12.

With `CC1(C)O[C@]23C[C@H]1CC[C@]2(C)CCC=C3CCCC(F)(F)F` [Compound 2, (1R,6S,9R)6,10,10-trimethyl-2-(4,4,4-trifluorobutyl)-11-oxatricyclo [7.2.1.0^1,6]dodec-2-ene], the “Efficacy compared with BAF” value (at both low and medium doses, especially low dose) was “better efficacy than BAF”. Also, under “at low doses”, the “Efficacy compared with BAF” value is given as “better efficacy”. Also, the “Antianxiety effects in elevated plus maze” value (intraperitoneal doses of 2.4, 4.8 and 9.6 mg/kg) was “significant antianxiety effects”. In addition, under “2.4 mg/kg”, the “Closed arm number of entries” value was determined as 10.92 ± 0.84, the “Closed arm residence time” value was 112.68 ± 8.68 s, the “Open arm number of entries” value was found to be 9.23 ± 0.47 and the “Open arm residence time” value was 144.06 ± 8.10 s. Besides, under “2.4 mg/kg”, the “Open arm/closed arm frequency ratio” value came to 0.89 ± 0.06 and the “Open arm/closed arm time ratio” value worked out at 1.48 ± 0.24. Under “4.8 mg/kg”, the “Closed arm number of entries” value was 10.00 ± 0.57, the “Closed arm residence time” value was 149.91 ± 8.22 s, the “Open arm number of entries” value is 9.08 ± 0.69 and the “Open arm residence time” value was determined as 118.65 ± 6.32 s. For the setting “4.8 mg/kg”, the “Open arm/closed arm frequency ratio” value is recorded as 0.93 ± 0.07 and the “Open arm/closed arm time ratio” value is 0.86 ± 0.11. Also, under “9.6 mg/kg”, the “Closed arm number of entries” value is on record as 9.85 ± 1.08, the “Closed arm residence time” value was determined as 139.13 ± 11.37 s, the “Open arm number of entries” value was determined as 9.31 ± 1.12 and the “Open arm residence time” value was 115.0 ± 8.07 s. In addition, under “9.6 mg/kg”, the “Open arm/closed arm frequency ratio” value is recorded as 0.99 ± 0.10 and the “Open arm/closed arm time ratio” value was determined as 0.93 ± 0.12.
